Assay results published in publication PMC6855259, “Acylation-coupled lipophilic induction of polarisation (Acyl-cLIP): a universal assay for lipid transferase and hydrolase enzymes” (Chemical Science, 2019).
Counter-ions that a name gives are not always drawn. Like-named read-outs stand apart in the source and are kept apart here. Blank lines part the entries; values can stand above or below the compound they belong to. Where a SMILES comes first, the peptide text is derived from it. Where no end group is shown, it is not given here.

Key:
HHAT [1] = molecular target: T1, HHAT (Homo sapiens, UniProt Q5VTY9); assay: Pilot HTS Acyl-cLIP screen of FDA-approved drugs, purified HHAT, stopped-assay conditions; format: biochemical; details: compounds screened at 25 μM
T1 construct: FLAG (C); His (C); made in house; host or cells: HEK293a cells stably overexpressing HHAT-FLAG-His

HHAT [2] = molecular target: T1, HHAT; assay: HHAT Acyl-cLIP assay with HHAT-P100(sol): SHH-FAM palmitoylation, dose-response and kinetics; format: biochemical
Description: Recombinant Protein Production
HHAT-enriched solubilised membrane fractions (HHAT-P100(sol)) were prepared as previously described,[4] with the following modifications. HEK293a cells overexpressing HHAT-FLAG-His (HEK293a HHAT+) were cultured, harvested by trypsinisation, and washed with PBS as previously described.[9] Cells (5 × 106) in DMEM/FBS (35 mL) were inoculated on sterilised CultiSphere S microcarriers (100 mg) in a spinner flask (Corning), and incubated as previously described. After 24 h, DMEM/FBS (15 mL) was added and cells incubated with stirring (~30 rpm), with addition on DMEM/FBS (50 mL) after 24 h. DMEM/FBS (50 mL) was refreshed every subsequent 24 h. After 5 days, microcarriers were collected by centrifugation (1,000 g, 1 min), and washed with PBS (25 mL). Microcarriers were digested with trypsin (3 mL) with visual monitoring by microscopy (5-15 min, see Supplementary Figure S11D) to release HEK293a HHAT+ cells, which were washed with DMEM/FBS (25 mL) and PBS […]
(25 mL). […]
25 kPSI through a Cell Disruptor (Constant Systems). Lysates were cleared by centrifugation (20,000 g, 30 min, 4 °C), and the supernatant passed through a HisTrap™ Fast Flow column (GE Healthcare). Bound protein was eluted with elution buffer (50 mM TRIS, 150 mM NaCl, 300 mM imidazole, pH 8.8), and concentrated to 2 mL in a Protein Concentrator PES (Pierce, 10,000 MWCO). The sample was cleared by centrifugation (20,000 g, 5 min, 4 °C) and purified using a S75 16/600 gel filtration column (Generon), eluting with storage buffer (50 mM TRIS, 150 mM NaCl, pH 7.4). Fractions containing protein were pooled, concentrated (5 mg/mL APT1, 4 mg/mL APT2), flash frozen, and stored at −80 °C.
Fluorescence measurements were recorded on an EnVision Xcite 2104 (PerkinElmer).
FAM-labelled peptides were measured using a FITC FP D505fp mirror module, FITC FP 480 nm excitation filter (30 nm bandwidth), FITC FP P-pol 535 nm first emission filter (40 nm bandwidth), and FITC FP S-pol 535 nm second emission filter (40 nm bandwidth). Continuous reaction monitoring was conducted using measurement height = 9.52 mm, 8 flashes/well, PMT gain = 319, and G-factor = 1.09. For the HHAT pilot screen, stopped-assay measurements were performed using measurement height = 9.52 mm, 60 flashes/well, PMT gain = 319, and G-factor = 1.09. The NMT acyl-cLIP assay continuous reaction monitoring was conducted using measurement height = 6.6 mm, 1 flash/well, PMT gain = 163, and G- […]
TAMRA-labelled peptides were measured using a BODIPY TMR FP D555fp mirror module, BODIPY TMR FP 531 nm excitation filter (25 nm bandwidth), BODIPY TMR FP P-pol 579 nm first emission filter (25 nm bandwidth), and BODIPY TMR FP S-pol 579 nm second emission filter (25 nm bandwidth). Continuous reaction monitoring was conducted using measurement height = 6.5 mm, 200 flashes/well, PMT gain = 255, and G-factor = 1.6.
HHAT-P100(sol) (450 µg/mL) in solubilisation buffer (20 mM HEPES, 350 mM NaCl, 1% (w/v) DDM, 5% glycerol, pH 7.3) was diluted 1:10 in SHH-FAM (2 µM) in reaction buffer (100 mM MES, 20 mM NaCl, 1 mM DTT, 1 mM TCEP, 0.1% (w/v) BSA, pH 6.5). The HHAT/SHH-FAM solution (12 µL/well) was dispensed into a black 384-well plate (Corning, 3575). The reaction was initiated by addition of Pal-CoA (7.5 µM) in reaction buffer (8 µL/well), and fluorescence readings collected every 1 min for 1 h. Under stopped-assay conditions, the reaction was halted by addition of SHH (220 µM) in reaction buffer (2 µL).
Detergents (2 mM) or BSA (0.15 mM) were tested for generation of polarised fluorescence from Pal-SHH-FAM or SHH-FAM (0.1 µM) in 100 mM MES, 20 mM NaCl. Detergent and BSA titrations were performed using 2-fold serial dilutions.
Small molecule inhibitors in DMSO were dispensed using an Echo 550 liquid handler (Labcyte), with a DMSO backfill volume of 50 nL. Substrate competitors SHH, SHH(FL), or Pal-SHH were serially diluted in reaction buffer (1:3) prior to addition to the HHAT/SHH-FAM […]
solution. […]

[3] = system: SHH acylation in HEK-293 SHH+ cells; assay: In-cell YnC15 tagging assay of SHH acylation; format: cell-based, human; details: inhibitors 20 µM, YnC15, AzTB ligation
Description: In-Cell YnC15 Tagging Assay
HEK293a SHH+ cells (500,000 cells/well) were plated in a 6-well plate in DMEM/FBS (3 mL/well) and cultured for 24 h. Cells were treated with inhibitors in DMSO (20 µM), two RUSKI-201 (20 µM) blind-positive controls and two DMSO (7.5 µL) blind-negative controls.
After 1 h, YnC15 (3 µL, 20 mM in DMSO) was added and cells cultured for a further 6 h before washing with PBS. Cells were lysed in PBS with Triton X-100 (1%), SDS (0.1% (w/v)) and Complete EDTA-free protease inhibitor cocktail (Roche Diagnostics). Cells were removed from plates by scraping, and lysates centrifuged (13,000 g, 10 min, 4 °C). The protein concentration of the supernatant was estimated using the DC Protein Assay (Bio-Rad) and adjusted to 1 mg/mL with lysis buffer. AzTB (1 µL, 10 mM in DMSO), CuSO4 (2 µL, 50 mM in H2O), TCEP (2 µL, 50 mM in H2O) and TBTA (1 µL, 10 mM in DMSO) were combined, and this mixture (6 µL) added to the lysate (100 µL). Samples were shaken at RT for 1 h, then proteins precipitated by addition of methanol (200 µL), chloroform (50 µL) and water (100 µL) followed by centrifugation (13,000 g, 5 min, 4 °C). The upper aqueous layer was removed without disturbing the protein layer at the interphase, methanol (0.5 mL) was added, and the precipitated proteins isolated by centrifugation (13,000 g, 10 min, 4 °C). Protein pellets were […]
washed twice with methanol, briefly air-dried and re-dissolved in PBS containing SDS (0.2% (w/v)) and DTT (0.1 mM) using sonication to a final concentration of 1 mg/mL.
10 µg of protein were separated on a 15% SDS-polyacrylamide gel. Fluorescence was recorded using a Typhoon imager (GE Healthcare; excitation laser: 532 nm, emission filter:
Proteins were transferred to a nitrocellulose membrane by wet transfer (100 V, 1 h), and membranes blocked with BSA (5% (w/v)) in TBS-T (50 mM TRIS, 150 mM NaCl, 0.1% Tween-20, pH 7.5) for 1 h at RT, followed by overnight incubation at 4°C with rabbit α-SHH (Santa Cruz Biotechnology; sc-9024; 1:200) in TBS-T with BSA (0.5% (w/v)) or mouse α-Tubulin (Santa Cruz Biotechnology; sc-8035; 1:200) in TBS-T with BSA (0.5% (w/v)). Membranes were washed with TBS-T (4 × 5 min) and incubated at RT for 1 h with HRP-conjugated Goat-α-mouse IgG (Advansta; 1:10,000) in TBS-T with BSA (0.5% (w/v)) or Goat-α-rabbit IgG (Advansta; 1:10,000) in TBS-T with BSA (0.5% (w/v)). Membranes were washed with TBS-T (4 × 5 min) and developed with Luminata Crescendo Western HRP substrate (Millipore) on a Fujifilm LAS-3000 imager. YnC15-labelled SHH band intensities were quantified using ImageJ 1.50i (National Institute of Health, USA).
HEK293a SHH+ cells (5,000 cells/well) were plated in a 96-well plate in DMEM/FBS […]
(50 µL/well) and cultured for 24 h. […]

[4] = Detergent/BSA titration for polarised emission of Pal-SHH-FAM (fluorescence anisotropy); details: BSA titration with Pal-SHH-FAM; read-out: polarisation EC50
[5] = HHAT, SHH-FAM substrate competition, read-out: IC50 as competitive inhibitor of SHH-FAM palmitoylation
[6] = HHAT-P100(sol) activity, SHH-FAM palmitoylation, 25 min reaction, four parameter fit, read-out: IC50 of HHAT inhibition

T1 sequence (Q5VTY9 whole entry): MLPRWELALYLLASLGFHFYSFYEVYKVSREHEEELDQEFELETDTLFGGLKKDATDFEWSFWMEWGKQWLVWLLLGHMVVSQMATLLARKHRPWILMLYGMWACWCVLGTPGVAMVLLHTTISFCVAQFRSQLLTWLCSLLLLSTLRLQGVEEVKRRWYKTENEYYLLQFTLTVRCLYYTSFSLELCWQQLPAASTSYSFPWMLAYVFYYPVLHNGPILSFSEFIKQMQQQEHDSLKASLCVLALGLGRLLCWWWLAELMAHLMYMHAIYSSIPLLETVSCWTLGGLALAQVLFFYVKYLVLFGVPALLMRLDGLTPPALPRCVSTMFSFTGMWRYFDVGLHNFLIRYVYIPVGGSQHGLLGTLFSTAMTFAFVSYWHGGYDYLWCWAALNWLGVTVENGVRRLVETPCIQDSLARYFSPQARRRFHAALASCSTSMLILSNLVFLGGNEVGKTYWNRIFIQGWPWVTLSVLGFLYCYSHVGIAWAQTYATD

Compound: Oc1ccc(C2CNCCc3c2cc(O)c(O)c3Cl)cc1 (centres unmarked) [Fenoldopam Mesylate]
inhibition at 25 µM (HHAT [1]): > 80%

Compound: CCC(C)CNCC(=O)N1CCc2sccc2C1COc1cccc(C)c1 (centres unmarked) [RUSKI-43]
IC50 (HHAT [2]; [6]): 17000 nM

Compound: CCC(C)CNCC(=O)N1CCc2sccc2C1c1cccc(C)n1 (centres unmarked) [RUSKI-201]
IC50 (HHAT [2]; [6]): 2000 nM
inhibition at 25 µM (HHAT [1]): > 80%
inhibition of SHH acylation (YnC15 tagging) by in-gel fluorescence ([3]; IGF): showed inhibition of SHH acylation
inhibition of SHH acylation assessed by increased molecular weight in anti-SHH blotting ([3]; α-SHH western blot): displayed inhibition

Compound: O=C1Cc2cc(CCN3CCN(c4nsc5ccccc45)CC3)c(Cl)cc2N1 [Ziprasidone·HCl]
inhibition at 25 µM (HHAT [1]): > 80%

Compound: RUSKI-41
IC50 (HHAT [2]; [6]): 5700 nM

Compound: RUSKI-101
IC50 (HHAT [2]; [6]): 2100 nM

Compound: SHH(FL): N-terminal signalling domain of the mature full-length SHH protein (residues 24–193), expressed in E. coli without lipid modification
IC50 (HHAT [2]; [5]): 440 nM

Continued, values first:

inhibition at 25 µM (HHAT [1]): > 80%
Compound: Cc1cc(C2CCCCC2)n(O)c(=O)c1 [Ciclopirox]

Vmax (HHAT [2]; Pal-CoA titration, SHH-FAM palmitoylation): 0.081 pmol min^–1
Km (HHAT [2]; Pal-CoA titration, SHH-FAM palmitoylation, initial velocity conditions, read-out: apparent KM): 0.17 µM
Vmax (HHAT [2]; Pal-CoA titration, initial velocity conditions): 0.081 pmol/min
Compound: CCCCCCCCCCCCCCCC(=O)SCCNC(=O)CCNC(=O)[C@H](O)C(C)(C)COP(=O)(O)OP(=O)(O)OC[C@H]1O[C@@H](n2cnc3c(N)ncnc32)[C@H](O)[C@@H]1OP(=O)(O)O [Pal-CoA, palmitoyl-CoA]

IC50 (HHAT [2]; [5]): 100 nM
Compound: CCCCCCCCCCCCCCCC(=O)N[C@@H](CS)C(=O)NCC(=O)N1CCC[C@H]1C(=O)NCC(=O)N[C@@H](CCCNC(=N)N)C(=O)NCC(=O)N[C@@H](Cc1ccccc1)C(=O)NCC(=O)N[C@@H](CCCCN)C(=O)N[C@@H](CCCNC(=N)N)C(=O)N[C@@H](CCCCN)C(N)=O [Pal-SHH] (HELM PEPTIDE1{[CCCCCCCCCCCCCCCC(=O)[*:2]].C.G.P.G.R.G.F.G.K.R.K.[am]}$$$$V2.0)

IC50 (HHAT [2]; [5]): 370 nM
Compound: CGPGRGFGKRK-NH2 [SHH]

EC50 [4]: 490 nM
Compound: bovine serum albumin [BSA]
